Laboratory results reported in patent publication US20210275518A1, “METHODS OF USING REBASTINIB IN THE TREATMENT OF DISORDERS” (Deciphera Pharmaceuticals, LLC, priority 2020, published 2021).

Experiments:
Assay type in all cases: in vivo, human
[1] = Pharmacokinetics of rebastinib given with paclitaxel (Part 1); details: 50 mg BID and 100 mg BID in combination with paclitaxel
Source text: (§1) This is an open-label Phase 1b/2 multicenter study in patients with advanced or metastatic solid tumors where paclitaxel may be considered appropriate treatment. Rebastinib will be administered in combination with paclitaxel in repeated 28-day cycles to primarily assess the safety, tolerability and preliminary efficacy of the combination. Adverse events (AEs) will be assessed, and laboratory values, vital sign measurements, electrocardiograms (ECGs), ophthalmologic examinations, physical examinations and Eastern Cooperative Oncology Group (ECOG) Performance Status (PS) will be obtained to evaluate the safety and tolerability of rebastinib when administered in combination with paclitaxel. Pharmacokinetic (PK) and pharmacodynamic (PD) samples will be collected at pre-specified time points.

TIE2 = assay: Pharmacodynamics: circulating Ang-2 levels (Part 1); details: with exposure to higher doses of rebastinib in combination with paclitaxel; indicating TIE2 inhibition
Source text: as §1

mesothelioma = assay: Phase 1b/2 rebastinib + paclitaxel, Part 1 patient with mesothelioma; details: one patient; 50 mg BID rebastinib + paclitaxel 80 mg/m^2, reduced at Cycle 4 to 25 mg BID + 60 mg/m^2; two prior lines carboplatin and alimta; Cycle 8, Day 1
Experimental: The study consists of two parts (Part 1 and Part 2). In Part 1, patients were assigned to one of two pre-defined dose levels of rebastinib (50 or 100 mg BID) in combination with paclitaxel administered by intravenous (IV) infusion at 80 mg/m^2. Paclitaxel is to be administered by IV infusion at 80 mg/m^2 over approximately 60 minutes on Day 1, Day 8 and Day 15 of repeated 28-day cycles. Rebastinib is to be administered orally prior to the paclitaxel infusion.
Part 1 included treatment of a patient with mesothelioma with 50 mg BID rebastinib and paclitaxel at 80 mg/m^2. The patient had two prior lines of treatment with carboplatin and alimta.

[2] = system: triple negative breast cancer; assay: Phase 1b/2 rebastinib + paclitaxel, Part 2 Cohort 1 (RECIST v1.1)
Source text: (§2) Upon determination of the RP2D, Part 2 is initiated to dose up to 165 evaluable patients using the RP2D across five indication-specific cohorts. A Simon's two-stage design is applied to Part 2 to further evaluate the safety, tolerability, and preliminary efficacy of rebastinib in combination with paclitaxel in triple-negative breast (Cohort 1), inflammatory breast (Cohort 2), ovarian (Cohort 3), endometrial adenocarcinoma (Cohort 4), and gynecologic carcinosarcoma (Cohort 5) cancers. Each cohort initially enrolls up to 18 evaluable patients in the first stage. Patients must receive at least 1 dose of the combination and have 1 post-baseline assessment (including assessment of clinical progression) or be discontinued prior to the postbaseline disease assessment due to an AE at least possibly related to rebastinib, to be considered evaluable. Tumor response is assessed according to Response Evaluation Criteria in Solid Tumors (RECIST) Version 1.1. The decision to enroll patients beyond the first stage is based on response assessments obtained after the first post-dose response assessment of the last patient enrolled in the first stage of a cohort. […] If ≤4 responses are seen in a cohort, the cohort will be terminated. If >4 responses are seen prior to the last evaluable patient in the first stage, expanding the cohort may be triggered earlier. Enrollment in each cohort will pause between the first and second stage of the Simon two-stage for evaluation of response. Patients will receive study treatment until they develop progressive disease, experience unacceptable toxicity, or withdraw consent.

[3] = system: endometrial adenocarcinoma; assay: Phase 1b/2 rebastinib + paclitaxel, Part 2 Cohort 4 (RECIST v1.1)
Source text: as §2
21 patients were enrolled and completed at least Cycle 1, Day 1 (C1D1); 18 of which had post baseline measurements. 16 of the patients treated with rebastinib were at a starting dose of 100 mg BID and 80 mg/m^2 weekly paclitaxel, of which the doses of 11 were reduced to 50 mg BID and 80 mg/m^2 weekly paclitaxel, and 5 patients were at a starting dose of 50 mg BID and 80 mg/m^2 weekly paclitaxel. Of the 21 patients who completed at least Cycle 1, Day 1, the median age was 66 years, all received at least 1 prior line of paclitaxel/carboplatin, and 20 (95%) received at least 2 prior anti-cancer therapies. Of the 21 patients who completed at least Cycle 1, Day 1, the median duration of treatment was 16 weeks. Of the 21 patients, 18 were determined to be efficacy evaluable patients (mITT).
At a third time point, 38 patients with endometrial cancer were enrolled in this portion of the study as a safety population. 16 of the patients treated with rebastinib were at a starting dose of 100 mg BID and 80 mg/m^2 weekly paclitaxel, of which the doses of 11 were reduced to 50 mg BID and 80 mg/m^2 weekly paclitaxel, and 22 patients were at a starting dose of 50 mg BID and 80 mg/m^2 weekly paclitaxel. 33 of the 38 patients met the met the modified intention-to-treat (mITT) criteria.

[4] = both Cycle 3, Day 1 and Cycle 5, Day 1
[5] = Cohort 4, time point 1, of the eight with stable disease at Cycle 3, Day 1, Cycle 5, Day 1
[6] = Cohort 4, time point 1, rebastinib + paclitaxel, Cycle 3, Day 1
[7] = Cohort 4, time point 2, 18 evaluable patients (mITT)
[8] = Cohort 4, time point 3, of 3 patients who had received Lenvatinib/pembrolizumab
[9] = Cohort 4, time point 4, 33 evaluable patients
[10] = Table 2, Cohort 4, time point 3, mITT N = 33, patients (%)
[11] = Table 2, Cohort 4, time point 3, n 11

In the case of CNC(=O)c1cc(Oc2ccc(NC(=O)Nc3cc(C(C)(C)C)nn3-c3ccc4ncccc4c3)c(F)c2)ccn1 [rebastinib], the Exposure to rebastinib [1] is reported as “dose proportional”, the “Mean circulating Ang-2 levels” value (TIE2) is reported as “increased” and the Tumor response (mesothelioma) is reported as “partial response”. For the same compound, the “Patients with stable disease” value ([2]; Cycle 3, Day 1) was “one”, the “Patients with partial response” value ([2]; Cycle 8, Day 1) was “one” and the “Patients with partial response” value [2, 4] was “one”. For the same compound, the “Patients with stable disease” value [2, 4] was “two”, the “Patients with stable disease at Cycle 5, Day 1 and partial response at Cycle 8, Day 1” value ([3]; Cohort 4, time point 1, of the eight with stable disease at Cycle 3, Day 1) was “one” and the “Patients with partial response” value [3, 5] was “one”. For the same compound, the “Patients with stable disease” value [3, 5] was “four”, the “Patients with partial response” value ([3]; Cohort 4, time point 1, of the four with partial response at Cycle 3, Day 1, Cycle 5, Day 1) was “two” and the “Patients with partial response” value ([3]; Cohort 4, time point 1, of the four with partial response at Cycle 3, Day 1, both Cycle 5, Day 1 and Cycle 8, Day 1) was “two”. The “Patients with partial response” value [3, 6] was “four”, the “Patients with stable disease” value [3, 6] was “Eight” and the “CBR at 8 weeks” value [3, 7] was 72%. For the same compound, the ORR [3, 7] was 39%, the “Stable disease (SD) determinations” value [3, 7] was 6 and the “Partial response (PR) determinations” value ([3]; Cohort 4, time point 2, 18 evaluable patients (mITT), rebastinib 100 or 50 mg BID with weekly paclitaxel 80 mg/m^2) was 7. The “Clinical benefit rate at 16 weeks” value ([3]; Cohort 4, time point 3, 33 patients mITT) was 53%, the “Objective response rate (ORR)” value ([3]; Cohort 4, time point 3, 33 patients mITT, rebastinib 100 or 50 mg BID with weekly paclitaxel 80 mg/m^2) was 33% and the ORR across subgroups ([3]; Cohort 4, time point 3, FIG. 7, subgroups by age, number of prior regimens, number of prior paclitaxel regimens, histology) was “consistent”. The “Patients with partial response” value [3, 8] was 2, the “Patients with stable disease” value [3, 8] was 1 and the “Outcome of serious adverse events related (or possibly) to rebastinib” value ([3]; Cohort 4, time point 4) was “resolved after dose interruption”. For the same compound, the “Clinical benefit at 8 weeks” value [3, 9] was 70%, the “Clinical benefit at 16 weeks” value [3, 9] was 54% and the “Confirmed PRs” value [3, 9] was 8. The PRs [3, 9] was 11, the ORR ([3]; Cohort 4, time point 4, 33 evaluable patients, rebastinib 100 or 50 mg BID with weekly paclitaxel 80 mg/m^2) was 33% and the “KM median duration of response” value ([3]; Cohort 4, time point 4, 90% CI: 2.7, NE, median follow up 4.4 months) was 7.4 months. For the same compound, the “Median PFS” value ([3]; Cohort 4, time point 4, 90% CI: 3.7, 9.4) was 6.2 months, the “Best Overall Response: Confirmed Partial Response” value [3, 10] was 8 (24.2%) and the “Best Overall Response: Not Evaluable: discontinued prior to radiological assessment” value [3, 10] was 5 (15.2%). For the same compound, the “Best Overall Response: Partial Response” value [3, 10] was 11 (33.3%), the “Best Overall Response: Progressive Disease” value [3, 10] was 6 (18.2%) and the “Best Overall Response: Single Response Awaiting Confirmation” value [3, 10] was 1 (3.0%). The “Best Overall Response: Stable Disease” value [3, 10] was 11 (33.3%), the “Best Overall Response: Unconfirmed Single Response” value [3, 10] was 2 (6.1%) and the “Duration of Response, Events (%)” value [3, 11] was 3 (27.3). The “Time to Response, Mean (SD)” value [3, 11] was 3.3 (1.7) and the “Duration of Response, Kaplan-Meier Median (80% CI)” value ([3]; Table 2, Cohort 4, time point 3, n 11, NE: Not evaluated) was 7.4 (7.4, NE).
